According to US20240109972A1, “ANTIBODY AND TAXANE COMBINATION THERAPY” (Genmab A/S, priority 2020, published 2024):

What was measured:
[1] = GEN1046 in combination with docetaxel in metastatic NSCLC subjects, adverse effects; assay type: in vivo, human
Procedure: Docetaxel was administered at a dose of 55 mg/m^2 or 75 mg/m^2 depending on the number of prior Dose Limiting Toxicities observed. The maximum tested dose of docetaxel was be 75 mg/m^2.
Subjects with a histological or cytological diagnosis of non-squamous NSCLC must not have an EGFR-sensitizing mutation and/or ALK translocation/ROS1 rearrangement. EGFR sensitizing mutations are those mutations that are amenable to treatment with an approved TKI. Documentation of EGFR and ALK status should be available per local assessment.

[2] = test system: MC38 mouse colon cancer cells; assay type: in vivo; conditions: mbsIgG2a-PD-L1×4-1BB 0.5 mg/kg 2QW×3, docetaxel 10 mg/kg QW×3; FIG. 7A
Procedure: MC38 mouse colon cancer cells were cultured in Dulbecco's Modified Eagle Medium supplemented with 10% heat-inactivated fetal bovine serum at 37° C., 5% CO2. MC38 cells were harvested from a cell culture growing in log-phase and quantified.
MC38 cells (1×10^6 tumor cells in 100 μL PBS) were injected subcutaneously in the right lower flank of female C57BL/6 mice (obtained from Vital River Laboratories Research Models and Services; age 6-8 weeks at start of experiment).
Tumor growth was evaluated three times per week using a caliper. Tumor volumes (mm^3) were calculated from caliper measurements as ([length]×[width]^2)/2, where the length is the longest tumor dimension, and the width is the longest tumor dimension perpendicular to the length.
Mice were randomized into groups (n=10/group) with an average tumor volume of 64 mm^3 prior to treatment. […]
The mice were monitored daily for clinical signs of illness. […]

cervical cancer = conditions: first-line, combined with paclitaxel and platinum (cisplatin or carboplatin) or paclitaxel and topotecan; cited from earlier work

Compound: CC(=O)O[C@@]12CO[C@@H]1C[C@H](O)[C@@]1(C)C(=O)[C@H](O)C3=C(C)[C@@H](OC(=O)[C@H](O)[C@@H](NC(=O)OC(C)(C)C)c4ccccc4)C[C@@](O)([C@@H](OC(=O)c4ccccc4)[C@H]21)C3(C)C [Docetaxel, reference compound]
- Anemia Grade 1, Docetaxel-related ([1]; 55 mg/m^2 Docetaxel + GEN1046): 1
- Anemia Grade 2, Docetaxel-related ([1]; 55 mg/m^2 Docetaxel + GEN1046): 2
- Anemia Grade 3, Docetaxel-related ([1]; 55 mg/m^2 Docetaxel + GEN1046): 2
- Anemia Grade 4, Docetaxel-related ([1]; 55 mg/m^2 Docetaxel + GEN1046): 0
- Anemia Grade 5, Docetaxel-related ([1]; 55 mg/m^2 Docetaxel + GEN1046): 0
- Blood alkaline phosphatase increase Grade 1, Docetaxel-related ([1]; 55 mg/m^2 Docetaxel + GEN1046): 0
- Blood alkaline phosphatase increase Grade 2, Docetaxel-related ([1]; 55 mg/m^2 Docetaxel + GEN1046): 1
- Blood alkaline phosphatase increase Grade 3, Docetaxel-related ([1]; 55 mg/m^2 Docetaxel + GEN1046): 1
- Blood alkaline phosphatase increase Grade 4, Docetaxel-related ([1]; 55 mg/m^2 Docetaxel + GEN1046): 0
- Blood alkaline phosphatase increase Grade 5, Docetaxel-related ([1]; 55 mg/m^2 Docetaxel + GEN1046): 0
- Dysgeusia Grade 1, Docetaxel-related ([1]; 55 mg/m^2 Docetaxel + GEN1046): 0
- Dysgeusia Grade 2, Docetaxel-related ([1]; 55 mg/m^2 Docetaxel + GEN1046): 1
- Dysgeusia Grade 3, Docetaxel-related ([1]; 55 mg/m^2 Docetaxel + GEN1046): 0
- Dysgeusia Grade 4, Docetaxel-related ([1]; 55 mg/m^2 Docetaxel + GEN1046): 0
- Dysgeusia Grade 5, Docetaxel-related ([1]; 55 mg/m^2 Docetaxel + GEN1046): 0
- Fatigue Grade 1, Docetaxel-related ([1]; 55 mg/m^2 Docetaxel + GEN1046): 0
- Fatigue Grade 2, Docetaxel-related ([1]; 55 mg/m^2 Docetaxel + GEN1046): 2
- Fatigue Grade 3, Docetaxel-related ([1]; 55 mg/m^2 Docetaxel + GEN1046): 1
- Fatigue Grade 4, Docetaxel-related ([1]; 55 mg/m^2 Docetaxel + GEN1046): 0
- Fatigue Grade 5, Docetaxel-related ([1]; 55 mg/m^2 Docetaxel + GEN1046): 0
- Febrile neutropenia Grade 1, Docetaxel-related ([1]; 55 mg/m^2 Docetaxel + GEN1046): 0
- Febrile neutropenia Grade 2, Docetaxel-related ([1]; 55 mg/m^2 Docetaxel + GEN1046): 0
- Febrile neutropenia Grade 3, Docetaxel-related ([1]; 55 mg/m^2 Docetaxel + GEN1046): 1
- Febrile neutropenia Grade 4, Docetaxel-related ([1]; 55 mg/m^2 Docetaxel + GEN1046): 0
- Febrile neutropenia Grade 5, Docetaxel-related ([1]; 55 mg/m^2 Docetaxel + GEN1046): 0
- Hypokalemia Grade 1, Docetaxel-related ([1]; 55 mg/m^2 Docetaxel + GEN1046): 0
- Hypokalemia Grade 2, Docetaxel-related ([1]; 55 mg/m^2 Docetaxel + GEN1046): 1
- Hypokalemia Grade 3, Docetaxel-related ([1]; 55 mg/m^2 Docetaxel + GEN1046): 0
- Hypokalemia Grade 4, Docetaxel-related ([1]; 55 mg/m^2 Docetaxel + GEN1046): 0
- Hypokalemia Grade 5, Docetaxel-related ([1]; 55 mg/m^2 Docetaxel + GEN1046): 0
- Hypomagnesaemia Grade 1, Docetaxel-related ([1]; 55 mg/m^2 Docetaxel + GEN1046): 1
- Hypomagnesaemia Grade 2, Docetaxel-related ([1]; 55 mg/m^2 Docetaxel + GEN1046): 0
- Hypomagnesaemia Grade 3, Docetaxel-related ([1]; 55 mg/m^2 Docetaxel + GEN1046): 0
- Hypomagnesaemia Grade 4, Docetaxel-related ([1]; 55 mg/m^2 Docetaxel + GEN1046): 0
- Hypomagnesaemia Grade 5, Docetaxel-related ([1]; 55 mg/m^2 Docetaxel + GEN1046): 0
- Hyponatremia Grade 1, Docetaxel-related ([1]; 55 mg/m^2 Docetaxel + GEN1046): 1
- Hyponatremia Grade 2, Docetaxel-related ([1]; 55 mg/m^2 Docetaxel + GEN1046): 0
- Hyponatremia Grade 3, Docetaxel-related ([1]; 55 mg/m^2 Docetaxel + GEN1046): 0
- Hyponatremia Grade 4, Docetaxel-related ([1]; 55 mg/m^2 Docetaxel + GEN1046): 0
- Hyponatremia Grade 5, Docetaxel-related ([1]; 55 mg/m^2 Docetaxel + GEN1046): 0
- Infusion site extravasation Grade 1, Docetaxel-related ([1]; 55 mg/m^2 Docetaxel + GEN1046): 1
- Infusion site extravasation Grade 2, Docetaxel-related ([1]; 55 mg/m^2 Docetaxel + GEN1046): 0
- Infusion site extravasation Grade 3, Docetaxel-related ([1]; 55 mg/m^2 Docetaxel + GEN1046): 0
- Infusion site extravasation Grade 4, Docetaxel-related ([1]; 55 mg/m^2 Docetaxel + GEN1046): 0
- Infusion site extravasation Grade 5, Docetaxel-related ([1]; 55 mg/m^2 Docetaxel + GEN1046): 0
- Nausea Grade 1, Docetaxel-related ([1]; 55 mg/m^2 Docetaxel + GEN1046): 1
- Nausea Grade 2, Docetaxel-related ([1]; 55 mg/m^2 Docetaxel + GEN1046): 0
- Nausea Grade 3, Docetaxel-related ([1]; 55 mg/m^2 Docetaxel + GEN1046): 0
- Nausea Grade 4, Docetaxel-related ([1]; 55 mg/m^2 Docetaxel + GEN1046): 0
- Nausea Grade 5, Docetaxel-related ([1]; 55 mg/m^2 Docetaxel + GEN1046): 0
- Neutrophil count decreased Grade 1, Docetaxel-related ([1]; 55 mg/m^2 Docetaxel + GEN1046): 0
- Neutrophil count decreased Grade 2, Docetaxel-related ([1]; 55 mg/m^2 Docetaxel + GEN1046): 0
- Neutrophil count decreased Grade 3, Docetaxel-related ([1]; 55 mg/m^2 Docetaxel + GEN1046): 0
- Neutrophil count decreased Grade 4, Docetaxel-related ([1]; 55 mg/m^2 Docetaxel + GEN1046): 1
- Neutrophil count decreased Grade 5, Docetaxel-related ([1]; 55 mg/m^2 Docetaxel + GEN1046): 0
- Pyrexia Grade 1, Docetaxel-related ([1]; 55 mg/m^2 Docetaxel + GEN1046): 1
- Pyrexia Grade 2, Docetaxel-related ([1]; 55 mg/m^2 Docetaxel + GEN1046): 1
- Pyrexia Grade 3, Docetaxel-related ([1]; 55 mg/m^2 Docetaxel + GEN1046): 0
- Pyrexia Grade 4, Docetaxel-related ([1]; 55 mg/m^2 Docetaxel + GEN1046): 0
- Pyrexia Grade 5, Docetaxel-related ([1]; 55 mg/m^2 Docetaxel + GEN1046): 0
- Vomiting Grade 1, Docetaxel-related ([1]; 55 mg/m^2 Docetaxel + GEN1046): 0
- Vomiting Grade 2, Docetaxel-related ([1]; 55 mg/m^2 Docetaxel + GEN1046): 2
- Vomiting Grade 3, Docetaxel-related ([1]; 55 mg/m^2 Docetaxel + GEN1046): 0
- Vomiting Grade 4, Docetaxel-related ([1]; 55 mg/m^2 Docetaxel + GEN1046): 0
- Vomiting Grade 5, Docetaxel-related ([1]; 55 mg/m^2 Docetaxel + GEN1046): 0
- White blood cell count decreased Grade 1, Docetaxel-related ([1]; 55 mg/m^2 Docetaxel + GEN1046): 0
- White blood cell count decreased Grade 2, Docetaxel-related ([1]; 55 mg/m^2 Docetaxel + GEN1046): 0
- White blood cell count decreased Grade 3, Docetaxel-related ([1]; 55 mg/m^2 Docetaxel + GEN1046): 0
- White blood cell count decreased Grade 4, Docetaxel-related ([1]; 55 mg/m^2 Docetaxel + GEN1046): 1
- White blood cell count decreased Grade 5, Docetaxel-related ([1]; 55 mg/m^2 Docetaxel + GEN1046): 0
- Anaemia Grade 1, Docetaxel-related ([1]; 75 mg/m^2 Docetaxel + GEN1046): 0
- Anaemia Grade 2, Docetaxel-related ([1]; 75 mg/m^2 Docetaxel + GEN1046): 0
- Anaemia Grade 3, Docetaxel-related ([1]; 75 mg/m^2 Docetaxel + GEN1046): 1
- Anaemia Grade 4, Docetaxel-related ([1]; 75 mg/m^2 Docetaxel + GEN1046): 0
- Anaemia Grade 5, Docetaxel-related ([1]; 75 mg/m^2 Docetaxel + GEN1046): 0
- Diarrhea Grade 1, Docetaxel-related ([1]; 75 mg/m^2 Docetaxel + GEN1046): 1
- Diarrhea Grade 2, Docetaxel-related ([1]; 75 mg/m^2 Docetaxel + GEN1046): 0
- Diarrhea Grade 3, Docetaxel-related ([1]; 75 mg/m^2 Docetaxel + GEN1046): 0
- Diarrhea Grade 4, Docetaxel-related ([1]; 75 mg/m^2 Docetaxel + GEN1046): 0
- Diarrhea Grade 5, Docetaxel-related ([1]; 75 mg/m^2 Docetaxel + GEN1046): 0
- Dyspnea Grade 1, Docetaxel-related ([1]; 75 mg/m^2 Docetaxel + GEN1046): 0
- Dyspnea Grade 2, Docetaxel-related ([1]; 75 mg/m^2 Docetaxel + GEN1046): 0
- Dyspnea Grade 3, Docetaxel-related ([1]; 75 mg/m^2 Docetaxel + GEN1046): 0
- Dyspnea Grade 4, Docetaxel-related ([1]; 75 mg/m^2 Docetaxel + GEN1046): 1
- Dyspnea Grade 5, Docetaxel-related ([1]; 75 mg/m^2 Docetaxel + GEN1046): 0
- Fatigue Grade 1, Docetaxel-related ([1]; 75 mg/m^2 Docetaxel + GEN1046): 1
- Fatigue Grade 2, Docetaxel-related ([1]; 75 mg/m^2 Docetaxel + GEN1046): 2
- Fatigue Grade 3, Docetaxel-related ([1]; 75 mg/m^2 Docetaxel + GEN1046): 0
- Fatigue Grade 4, Docetaxel-related ([1]; 75 mg/m^2 Docetaxel + GEN1046): 0
- Fatigue Grade 5, Docetaxel-related ([1]; 75 mg/m^2 Docetaxel + GEN1046): 0
- Gastrooesophageal reflux disease Grade 1, Docetaxel-related ([1]; 75 mg/m^2 Docetaxel + GEN1046): 0
- Gastrooesophageal reflux disease Grade 2, Docetaxel-related ([1]; 75 mg/m^2 Docetaxel + GEN1046): 1
- Gastrooesophageal reflux disease Grade 3, Docetaxel-related ([1]; 75 mg/m^2 Docetaxel + GEN1046): 0
- Gastrooesophageal reflux disease Grade 4, Docetaxel-related ([1]; 75 mg/m^2 Docetaxel + GEN1046): 0
- Gastrooesophageal reflux disease Grade 5, Docetaxel-related ([1]; 75 mg/m^2 Docetaxel + GEN1046): 0
- Hiccups Grade 1, Docetaxel-related ([1]; 75 mg/m^2 Docetaxel + GEN1046): 0
- Hiccups Grade 2, Docetaxel-related ([1]; 75 mg/m^2 Docetaxel + GEN1046): 1
- Hiccups Grade 3, Docetaxel-related ([1]; 75 mg/m^2 Docetaxel + GEN1046): 0
- Hiccups Grade 4, Docetaxel-related ([1]; 75 mg/m^2 Docetaxel + GEN1046): 0
- Hiccups Grade 5, Docetaxel-related ([1]; 75 mg/m^2 Docetaxel + GEN1046): 0
- Lacrimation increased Grade 1, Docetaxel-related ([1]; 75 mg/m^2 Docetaxel + GEN1046): 1
- Lacrimation increased Grade 2, Docetaxel-related ([1]; 75 mg/m^2 Docetaxel + GEN1046): 0
- Lacrimation increased Grade 3, Docetaxel-related ([1]; 75 mg/m^2 Docetaxel + GEN1046): 0
- Lacrimation increased Grade 4, Docetaxel-related ([1]; 75 mg/m^2 Docetaxel + GEN1046): 0
- Lacrimation increased Grade 5, Docetaxel-related ([1]; 75 mg/m^2 Docetaxel + GEN1046): 0
- Nausea Grade 1, Docetaxel-related ([1]; 75 mg/m^2 Docetaxel + GEN1046): 1
- Nausea Grade 2, Docetaxel-related ([1]; 75 mg/m^2 Docetaxel + GEN1046): 2
- Nausea Grade 3, Docetaxel-related ([1]; 75 mg/m^2 Docetaxel + GEN1046): 0
- Nausea Grade 4, Docetaxel-related ([1]; 75 mg/m^2 Docetaxel + GEN1046): 0
- Nausea Grade 5, Docetaxel-related ([1]; 75 mg/m^2 Docetaxel + GEN1046): 0
- Neutrophil count decreased Grade 1, Docetaxel-related ([1]; 75 mg/m^2 Docetaxel + GEN1046): 0
- Neutrophil count decreased Grade 2, Docetaxel-related ([1]; 75 mg/m^2 Docetaxel + GEN1046): 0
- Neutrophil count decreased Grade 3, Docetaxel-related ([1]; 75 mg/m^2 Docetaxel + GEN1046): 1
- Neutrophil count decreased Grade 4, Docetaxel-related ([1]; 75 mg/m^2 Docetaxel + GEN1046): 1
- Neutrophil count decreased Grade 5, Docetaxel-related ([1]; 75 mg/m^2 Docetaxel + GEN1046): 0
- Not coded: periphery sensory neuropathy Grade 1, Docetaxel-related ([1]; 75 mg/m^2 Docetaxel + GEN1046): 1
- Not coded: periphery sensory neuropathy Grade 2, Docetaxel-related ([1]; 75 mg/m^2 Docetaxel + GEN1046): 0
- Not coded: periphery sensory neuropathy Grade 3, Docetaxel-related ([1]; 75 mg/m^2 Docetaxel + GEN1046): 0
- Not coded: periphery sensory neuropathy Grade 4, Docetaxel-related ([1]; 75 mg/m^2 Docetaxel + GEN1046): 0
- Not coded: periphery sensory neuropathy Grade 5, Docetaxel-related ([1]; 75 mg/m^2 Docetaxel + GEN1046): 0
- Vomiting Grade 1, Docetaxel-related ([1]; 75 mg/m^2 Docetaxel + GEN1046): 1
- Vomiting Grade 2, Docetaxel-related ([1]; 75 mg/m^2 Docetaxel + GEN1046): 0
- Vomiting Grade 3, Docetaxel-related ([1]; 75 mg/m^2 Docetaxel + GEN1046): 0
- Vomiting Grade 4, Docetaxel-related ([1]; 75 mg/m^2 Docetaxel + GEN1046): 0
- Vomiting Grade 5, Docetaxel-related ([1]; 75 mg/m^2 Docetaxel + GEN1046): 0
- Hepatotoxicity ([1]; GEN1046 in combination with Docetaxel): No reported drug-related hepatoxicities
- Tumor outgrowth [2]: comparable to the PBS-treated group

Compound: bevacizumab
- Median OS (cervical cancer): approximately 18 months
- ORR (cervical cancer): 48%
